pIC50: −log10 of the molar value. Where only a bound is given, the exact number is not on record here.

The target of the test is T1, human HPK1 protein (Homo sapiens, UniProt Q92918).
T1 construct: recombinant human HPK1 protein (a.a. 1-346) was expressed in Sf9 insect cells; GST (N); purchased Signalchem M23-11G; host or cells: Sf9 insect cells (baculovirus)
T1 sequence (Q92918 1-346): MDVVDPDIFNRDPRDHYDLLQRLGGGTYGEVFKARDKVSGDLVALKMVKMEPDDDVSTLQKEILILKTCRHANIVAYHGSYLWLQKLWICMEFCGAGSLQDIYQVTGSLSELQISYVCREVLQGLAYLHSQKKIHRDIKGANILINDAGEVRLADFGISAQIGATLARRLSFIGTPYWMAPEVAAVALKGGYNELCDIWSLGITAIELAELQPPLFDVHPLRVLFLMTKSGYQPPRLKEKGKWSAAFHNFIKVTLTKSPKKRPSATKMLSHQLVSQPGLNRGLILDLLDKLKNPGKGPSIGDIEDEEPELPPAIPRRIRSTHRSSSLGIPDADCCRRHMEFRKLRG
The test can be described thus: Human HPK1 protein TR-FRET assay. It is filed as biochemical. The following applies: 1 mM ATP, Table 19. The method, then: Exemplary compounds from the above Examples were tested for ability to inhibit HPK1 using a human HPK1 protein TR-FRET Assay. Assay procedures and results are described below.
N-terminal GST-tagged recombinant human HPK1 protein (a.a. 1-346) was expressed in Sf9 insect cells using a baculovirus expression system (Signalchem Catalog #M23-11G). The enzyme was diluted in assay buffer (50 mM Tris pH 7.5, 1 mM MgCl2, 0.01% NP-40 and 2 mM DTT) to obtain a 4× working solution at a concentration of 40 nM HPK1 enzyme.
A 5 μM stock of ULight™ CREBtide peptide RRPSYRK (Perkin Elmer Product No. TRF0107-M) derived from human cAMP Response Element Binding (CREB) Protein was prepared in storage buffer containing 50 mM Tris-HCl (pH 7.4), 0.9% NaCl, 0.1% BSA, and 0.05% sodium azide. The CREBtide substrate was diluted in assay buffer (50 mM Tris pH 7.5, 1 mM MgCl2, 0.01% NP-40, 2 mM DTT) with 2 mM ATP to a final concentration of 200 nM CREBtide peptide to obtain a 2× working solution of substrate. HPK1 enzyme and CREBtide substrate solutions were mixed with compounds diluted in DMSO to obtain a final concentration of enzyme, substrate, and ATP of 10 nM, 100 nM, and 1 mM, respectively, in 1% DMSO. The final assay mixture was incubated at room temperature for 60 minutes.
A solution of Europium-labeled anti-phospho-CREB (Ser133) antibody (Perkin Elmer Product No. TRF0200-M), EDTA and LANCE™ Detection Buffer (Perkin Elmer Product No. CR97-100) were added to each well to obtain a final concentration of 2 nM antibody, 10 mM EDTA and 1× LANCE buffer. The resulting mixture was incubated at room temperature for 60 minutes.
The fluorescence resonance energy transfer (FRET) signal was measured on an Envision plate reader: Excitation filter=340 nm, APC emission=665 nm, Europium emission=615 nm, dichroic mirror=D400/D630, delay time=100 μs, and integration time=200 μs. The half maximal inhibitory concentration (IC50) values for compounds were calculated from the quotient of the fluorescence signal at 665 nm divided by the fluorescence signal at 615 nm. The quotient of the fluorescence signals in the presence of DMSO without compound is set as 100 percent enzymatic activity. A 4-parameter logistic model in PRISM (GraphPad) was used to calculate the IC50 for a given compound.
As for `CCN1CCN(Cc2ccc(NC(=O)N3CCc4cc(C)c(Oc5ccnc6[nH]ccc56)cc4C3)cc2C(F)(F)F)CC1` [III-1], the pIC50 was > 6.30.

On to `CCN1CCN(Cc2ccc(NC(=O)N3CCc4ccc(Oc5ccnc6[nH]ccc56)c(C)c4C3)cc2C(F)(F)F)CC1` [III-2], for which the pIC50 was > 6.30.

Consider `CCN1CCN(Cc2ccc(NC(=O)N3CCc4ccc(Oc5ccnc6[nH]ccc56)c(F)c4C3)cc2C(F)(F)F)CC1` [III-3], for which the pIC50 was > 6.30.

Regarding `CCN1CCN(Cc2ccc(NC(=O)N3CCc4ccc(Oc5ccnc6[nH]c(C)cc56)cc4C3)cc2C(F)(F)F)CC1` [III-4], the pIC50 was > 6.30.

For `CCN1CCN(Cc2ccc(NC(=O)N3CCc4ccc(Oc5ccnc6c5CCN6)cc4C3)cc2C(F)(F)F)CC1` [III-5], the pIC50 is > 6.30.

`CCN1CCN(Cc2ccc(NC(=O)N3CCc4ccc(Oc5c(C)cnc6[nH]ccc56)cc4C3)cc2C(F)(F)F)CC1` [III-6]: the pIC50 is 5.30 to 6.30.

Regarding `CCN1CCN(Cc2ccc(NC(=O)N3CCc4ccc(Oc5c(Cl)cnc6[nH]ccc56)cc4C3)cc2C(F)(F)F)CC1` [III-7], the pIC50 is 5.30 to 6.30.

For `CCN1CCN(Cc2ccc(NC(=O)N3CCc4ccc(Oc5c(F)cnc6[nH]ccc56)cc4C3)cc2C(F)(F)F)CC1` [III-8], the pIC50 was > 6.30.

In the case of `CCN1CCN(Cc2ccc(NC(=O)N3CCc4c(C)cc(Oc5ccnc6[nH]ccc56)cc4C3)cc2C(F)(F)F)CC1` [III-9], the pIC50 was > 6.30.

`CN1CCC(Oc2ccc(NC(=O)N3CCc4ccc(Oc5ccnc6[nH]ccc56)cc4C3)cc2C(F)(F)F)CC1` [III-11]: the pIC50 is > 6.30.

`CCN1CCN(Cc2ccc(NC(=O)N3CCc4ccc(Oc5cc(C)nc6[nH]ccc56)cc4C3)cc2C(F)(F)F)CC1` [III-12] gave a pIC50 of 5.30 to 6.30.

For `CCN1CCN(Cc2ccc(NC(=O)N3CCc4ccc(Oc5ccnc6[nH]ccc56)cc4C3C)cc2C(F)(F)F)CC1` (stereo not shown) [IV-1], the negative logarithm of the IC50 (pIC50) was 5.30 to 6.30.

Regarding `CCN1CCN(Cc2ccc(NC(=O)N3Cc4cc(Oc5ccnc6[nH]ccc56)ccc4C(C)C3)cc2C(F)(F)F)CC1` (stereo not shown) [IV-3], the pIC50 was > 6.30.

The compound `CCN1CCN(Cc2ccc(NC(=O)N3CCc4c(C)cc(Oc5ccnc6[nH]ccc56)cc4C3C)cc2C(F)(F)F)CC1` (stereo not shown) [IV-5] gave a pIC50 of 5.30 to 6.30.

As for `CCN1CCN(Cc2ccc(NC(=O)N3CCc4cc(F)c(Oc5ccnc6[nH]ccc56)cc4C3C)cc2C(F)(F)F)CC1` (stereo not shown) [IV-7], the pIC50 was 5.30 to 6.30.

For the compound `C[C@H]1c2cc(Oc3ccnc4[nH]ccc34)ccc2CCN1C(=O)Nc1cc(C(F)(F)F)c(OC2CCN(C)CC2)cn1` [IV-9], the pIC50 is > 6.30.

Consider `CCN1CCN(Cc2ccc(NC(=O)N3CCc4nc(C)c(Oc5ccnc6[nH]ccc56)cc4C3C)cc2C(F)(F)F)CC1` (stereo not shown) [IV-10], for which the pIC50 was 5.30 to 6.30.

In turn, `CCN1CCN(Cc2ccc(NC(=O)N3CCc4c(C#N)cc(Oc5ccnc6[nH]ccc56)cc4C3C)cc2C(F)(F)F)CC1` (stereo not shown) [IV-11] showed a negative logarithm of the IC50 (pIC50) of 5.30 to 6.30.

Regarding `CCN1CCN(Cc2ccc(NC(=O)N3CCc4cc(C#N)c(Oc5ccnc6[nH]ccc56)cc4C3C)cc2C(F)(F)F)CC1` (stereo not shown) [IV-12], the pIC50 is 5.30 to 6.30.

As to `CCN1CCN(Cc2ccc(NC(=O)N3CCc4cc(Br)c(Oc5ccnc6[nH]ccc56)cc4C3C)cc2C(F)(F)F)CC1` (stereo not shown) [IV-13], the negative-log IC50 (pIC50) is > 6.30.

With `CCN1CCN(Cc2ccc(NC(=O)N3CCc4c(F)cc(Oc5ccnc6[nH]ccc56)cc4C3C)cc2C(F)(F)F)CC1` (stereo not shown) [IV-14], the pIC50 was > 6.30.

Turning to `CCN1CCN(Cc2ccc(NC(=O)N3CCc4c(F)cc(Oc5ccnc6[nH]ccc56)cc4C3C)cc2C(F)(F)F)CC1` (stereo not shown) [IV-15], the pIC50 is > 6.30.

As for `CCN1CCN(Cc2ccc(NC(=O)N3CCc4c(F)cc(Oc5ccnc6[nH]ccc56)cc4C3C)cc2C(F)(F)F)CC1` (stereo not shown) [IV-16], the pIC50 was 5.30 to 6.30.

As for `CCN1CCN(Cc2ccc(NC(=O)N3Cc4cc(Oc5ccnc6[nH]c(C)cc56)ccc4C(C)C3)cc2C(F)(F)F)CC1` (stereo not shown) [IV-17], the negative-log IC50 (pIC50) is > 6.30.

As to `CCN1CCN(Cc2ccc(NC(=O)N3Cc4cc(Oc5ccnc6[nH]c(C)cc56)ccc4C(C)C3)cc2C(F)(F)F)CC1` (stereo not shown) [IV-18], the pIC50 is > 6.30.

Regarding `CCN1CCN(Cc2ccc(NC(=O)N3Cc4cc(Oc5ccnc6[nH]c(C)cc56)ccc4C(C)C3)cc2C(F)(F)F)CC1` (stereo not shown) [IV-19], the pIC50 was > 6.30.

As to `CCC1CN(C(=O)Nc2ccc(CN3CCN(CC)CC3)c(C(F)(F)F)c2)Cc2cc(Oc3ccnc4[nH]ccc34)ccc21` (stereo not shown) [IV-20], the pIC50 is > 6.30.

Take `CCC1CN(C(=O)Nc2ccc(CN3CCN(CC)CC3)c(C(F)(F)F)c2)Cc2cc(Oc3ccnc4[nH]ccc34)ccc21` (stereo not shown) [IV-21]: the pIC50 was > 6.30.

For `CCC1CN(C(=O)Nc2ccc(CN3CCN(CC)CC3)c(C(F)(F)F)c2)Cc2cc(Oc3ccnc4[nH]ccc34)ccc21` (stereo not shown) [IV-22], the negative-log IC50 (pIC50) was > 6.30.

For the compound `CCN1CCN(Cc2ccc(NC(=O)N3Cc4cc(Oc5ccnc6[nH]ccc56)ccc4C4(CC4)C3)cc2C(F)(F)F)CC1` [IV-23], the negative-log IC50 (pIC50) is > 6.30.

`CCC1c2cc(Oc3ccnc4[nH]ccc34)ccc2CCN1C(=O)Nc1ccc(CN2CCN(CC)CC2)c(C(F)(F)F)c1` (stereo not shown) [IV-24] had a pIC50 of 5.30 to 6.30.

On to `CCN1CCN(Cc2ccc(NC(=O)N3CCc4cc(F)c(Oc5ccnc6[nH]c(C)cc56)cc4C3C)cc2C(F)(F)F)CC1` (stereo not shown) [IV-26], for which the pIC50 is 5.30 to 6.30.

Regarding `CCN1CCN(Cc2ccc(NC(=O)N3Cc4cc(Oc5ccnc6[nH]c(C)cc56)c(F)cc4C(C)C3)cc2C(F)(F)F)CC1` (stereo not shown) [IV-27], the pIC50 was > 6.30.

`CCN1CCN(Cc2ccc(NC(=O)N3Cc4cc(Oc5ccnc6[nH]c(C)cc56)c(F)cc4C(C)C3)cc2C(F)(F)F)CC1` (stereo not shown) [IV-28]: the pIC50 is > 6.30.

As to `CCN1CCN(Cc2ccc(NC(=O)N3Cc4cc(Oc5ccnc6[nH]c(C)cc56)c(F)cc4C(C)C3)cc2C(F)(F)F)CC1` (stereo not shown) [IV-29], the pIC50 was > 6.30.

Compound `CCN1CCN(Cc2ccc(NC(=O)N3CCc4cc(F)c(Oc5ccnn6cccc56)cc4C3C)cc2C(F)(F)F)CC1` (stereo not shown) [IV-30] gave a pIC50 of 5.30 to 6.30.

For the compound `CCN1CCN(Cc2ccc(NC(=O)N3CCc4cc(F)c(Oc5ccnn6cccc56)cc4C3C)cc2C(F)(F)F)CC1` (stereo not shown) [IV-31], the pIC50 is > 6.30.

Take `CCN1CCN(Cc2ccc(NC(=O)N3CCc4cc(F)c(Oc5ccnn6cccc56)cc4C3C)cc2C(F)(F)F)CC1` (stereo not shown) [IV-32]: the pIC50 was < 5.00.

On to `CCN1CCN(Cc2ccc(NC(=O)N3CCc4cc(F)c(Oc5ncnn6cccc56)cc4C3C)cc2C(F)(F)F)CC1` (stereo not shown) [IV-33], for which the negative logarithm of the IC50 (pIC50) was > 6.30.

Regarding `CCN1CCN(Cc2ccc(NC(=O)N3CCc4cc(F)c(Oc5ncnn6cccc56)cc4C3C)cc2C(F)(F)F)CC1` (stereo not shown) [IV-34], the pIC50 was < 5.00.

Take `CCN1CCN(Cc2ccc(NC(=O)N3CCc4cc(F)c(Oc5ncnn6cccc56)cc4C3C)cc2C(F)(F)F)CC1` (stereo not shown) [IV-35]: the pIC50 is > 6.30.

As for `CCN1CCN(Cc2ccc(NC(=O)N3Cc4cc(Oc5ccnc6[nH]c(C)cc56)ccc4C(C(C)C)C3)cc2C(F)(F)F)CC1` (stereo not shown) [IV-36], the negative-log IC50 (pIC50) was > 6.30.

As for `CCCC1CN(C(=O)Nc2ccc(CN3CCN(CC)CC3)c(C(F)(F)F)c2)Cc2cc(Oc3ccnc4[nH]c(C)cc34)ccc21` (stereo not shown) [IV-37], the pIC50 is > 6.30.

In the case of `Cc1cc2c(Oc3ccc4c(c3)CN(C(=O)Nc3cnc(OC5CCN(C)CC5)c(C(F)(F)F)c3)CC4C)ccnc2[nH]1` (stereo not shown) [IV-38], the pIC50 was > 6.30.

Consider `Cc1cc2c(Oc3ccc4c(c3)CN(C(=O)Nc3cnc(OC5CCN(C)CC5O)c(C(F)(F)F)c3)CC4C)ccnc2[nH]1` (stereo not shown) [IV-41], for which the pIC50 was > 6.30.

In the case of `C[C@H]1c2cc(Oc3ccnc4[nH]ccc34)ccc2CCN1C(=O)Nc1ccc(CN2CCNCC2)c(C(F)(F)F)c1` [V-1], the pIC50 is > 6.30.
